Data on five compounds can be found in patent US20240210412A1, “SULFONYL-TRIAZOLE COMPOUNDS USEFUL AS LIGANDS AND INHIBITORS OF PROSTAGLANDIN REDUCTASE 2” (University of Virginia Patent Foundation, priority 2021, published 2024).

Common to all, as to assay: SILAC LC-MS ABPP
Holding throughout (type): cell-based
Common to all, as to settings: 25 μM 2 h, live DM93 cells

For one assay, the target named is T1, Q9BTC8 (Homo sapiens, UniProt Q9BTC8).
T1 construct: endogenous in cells; host or cells: DM93 cells (SILAC), treated live; soluble proteome analysed
The method, boiled down: (§1)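 Ligand engagement is measured as loss of HHS-475 probe labelling at specific tyrosines. SILAC DM93 melanoma cells were treated in situ (25 μM ligand vs DMSO, 2 h, 37 °C; then 100 μM probe, 2 h), and modified peptides were quantified by high-resolution LC-MS/MS after desthiobiotin tagging and avidin capture.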

In a further assay the target is T2, Q06203 (Homo sapiens, UniProt Q06203).
T2 construct: performing SuTEx compound screening directly in cells; endogenous in cells; host or cells: DM93 cells (SILAC)
The procedure, abridged: as §1

A further assay addresses T3, Q9P2E9 (Homo sapiens, UniProt Q9P2E9).
T3 construct: endogenous in cells; host or cells: DM93 cells (SILAC)
The procedure, abridged:
as §1

For the next assay, the target named is T4, Q6NZY4 (Homo sapiens, UniProt Q6NZY4).
T4 construct: endogenous in cells; host or cells: DM93 cells (SILAC), live-cell treatment
The method, boiled down: as §1

A further assay has as its target T5, Q04837 (Homo sapiens, UniProt Q04837).
T5 construct: performing SuTEx compound screening directly in cells; endogenous in cells; host or cells: DM93 cells (SILAC)
The method, boiled down: as §1

A further assay concerns the target T6, Q13011 (Homo sapiens, UniProt Q13011).
T6 construct: performing SuTEx compound screening directly in cells; endogenous in cells; host or cells: DM93 cells (SILAC)
The method, boiled down: as §1

Another assay concerns the target T7, Q9UPP1 (Homo sapiens, UniProt Q9UPP1).
T7 construct: endogenous in cells; host or cells: DM93 cells (SILAC)
The procedure, abridged:
as §1

The next assay concerns the target T8, Q9NV35 (Homo sapiens, UniProt Q9NV35).
T8 construct: endogenous in cells; host or cells: DM93 cells (SILAC), treated live; soluble proteome analysed
The method, boiled down:
as §1

In the next assay the target is T9, Q9UFN0 (Homo sapiens, UniProt Q9UFN0).
T9 construct: endogenous in cells; host or cells: DM93 cells (SILAC)
The procedure, abridged: as §1

The target of the next assay is T10, Q86XP3 (Homo sapiens, UniProt Q86XP3).
T10 construct: endogenous in cells; host or cells: DM93 cells (SILAC), live-cell treatment
The procedure, abridged:
as §1

In another assay the target is T11, Q9NUJ1 (Homo sapiens, UniProt Q9NUJ1).
T11 construct: endogenous in cells; host or cells: DM93 cells (SILAC), treated live; soluble proteome analysed
The method, boiled down: as §1

The target in a further assay is T12, O00571 (Homo sapiens, UniProt O00571).
T12 construct: endogenous in cells; host or cells: DM93
The procedure, abridged: as §1

The target of a further assay is T13, O43823 (Homo sapiens, UniProt O43823).
T13 construct: endogenous in cells; host or cells: DM93
The procedure, abridged: as §1

The next assay addresses T14, Q9Y2H2 (Homo sapiens, UniProt Q9Y2H2).
T14 construct: endogenous in cells; host or cells: DM93 cells (SILAC)
The method, boiled down: as §1

For another assay, the target named is T15, O75131 (Homo sapiens, UniProt O75131).
T15 construct: endogenous in cells; host or cells: DM93
The method, boiled down:
as §1

The next assay has as its target T16, O95757 (Homo sapiens, UniProt O95757).
T16 construct: endogenous in cells; host or cells: DM93 cells (SILAC)
The procedure, abridged: as §1

A further assay deals with T17, Q9BXS6 (Homo sapiens, UniProt Q9BXS6).
T17 construct: endogenous in cells; host or cells: DM93 cells (SILAC), treated live; soluble proteome analysed
The procedure, abridged:
as §1

Another assay deals with T18, Q13151 (Homo sapiens, UniProt Q13151).
T18 construct: performing SuTEx compound screening directly in cells; endogenous in cells; host or cells: DM93 cells (SILAC), soluble fraction
The procedure, abridged:
as §1

For another assay, the target named is T19, P49792 (Homo sapiens, UniProt P49792).
T19 construct: endogenous in cells; host or cells: DM93 cells (SILAC)
The procedure, abridged:
as §1

T5 sequence (Q04837 17-148): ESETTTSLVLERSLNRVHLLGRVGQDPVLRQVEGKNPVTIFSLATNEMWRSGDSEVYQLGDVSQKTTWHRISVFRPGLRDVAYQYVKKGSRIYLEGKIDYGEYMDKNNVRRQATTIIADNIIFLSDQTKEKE
T17 sequence (Q9BXS6 whole entry): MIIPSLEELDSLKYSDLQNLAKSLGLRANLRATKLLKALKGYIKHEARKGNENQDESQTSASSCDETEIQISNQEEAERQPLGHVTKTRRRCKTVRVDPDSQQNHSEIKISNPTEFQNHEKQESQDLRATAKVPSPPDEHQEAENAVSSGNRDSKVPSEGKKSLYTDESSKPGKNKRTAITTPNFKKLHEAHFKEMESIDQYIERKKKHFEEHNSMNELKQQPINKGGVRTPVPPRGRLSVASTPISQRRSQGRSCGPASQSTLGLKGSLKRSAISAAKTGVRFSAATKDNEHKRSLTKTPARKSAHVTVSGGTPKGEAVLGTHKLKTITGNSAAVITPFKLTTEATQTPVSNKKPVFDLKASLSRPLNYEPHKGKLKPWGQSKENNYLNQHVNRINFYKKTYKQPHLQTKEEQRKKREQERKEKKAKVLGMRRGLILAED
T8 sequence (Q9NV35 whole entry): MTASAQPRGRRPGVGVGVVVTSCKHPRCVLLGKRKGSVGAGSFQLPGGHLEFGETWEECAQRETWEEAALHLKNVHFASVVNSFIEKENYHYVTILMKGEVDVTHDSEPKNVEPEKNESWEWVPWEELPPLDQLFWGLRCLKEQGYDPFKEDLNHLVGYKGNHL
T9 sequence (Q9UFN0 whole entry): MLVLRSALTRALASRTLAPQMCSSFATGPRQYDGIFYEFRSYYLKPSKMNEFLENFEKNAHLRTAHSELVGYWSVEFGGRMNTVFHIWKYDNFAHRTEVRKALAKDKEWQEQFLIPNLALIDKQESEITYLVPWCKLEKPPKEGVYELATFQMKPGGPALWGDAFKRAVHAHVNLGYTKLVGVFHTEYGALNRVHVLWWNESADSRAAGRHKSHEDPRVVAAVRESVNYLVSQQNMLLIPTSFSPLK
T14 sequence (Q9Y2H2 whole entry): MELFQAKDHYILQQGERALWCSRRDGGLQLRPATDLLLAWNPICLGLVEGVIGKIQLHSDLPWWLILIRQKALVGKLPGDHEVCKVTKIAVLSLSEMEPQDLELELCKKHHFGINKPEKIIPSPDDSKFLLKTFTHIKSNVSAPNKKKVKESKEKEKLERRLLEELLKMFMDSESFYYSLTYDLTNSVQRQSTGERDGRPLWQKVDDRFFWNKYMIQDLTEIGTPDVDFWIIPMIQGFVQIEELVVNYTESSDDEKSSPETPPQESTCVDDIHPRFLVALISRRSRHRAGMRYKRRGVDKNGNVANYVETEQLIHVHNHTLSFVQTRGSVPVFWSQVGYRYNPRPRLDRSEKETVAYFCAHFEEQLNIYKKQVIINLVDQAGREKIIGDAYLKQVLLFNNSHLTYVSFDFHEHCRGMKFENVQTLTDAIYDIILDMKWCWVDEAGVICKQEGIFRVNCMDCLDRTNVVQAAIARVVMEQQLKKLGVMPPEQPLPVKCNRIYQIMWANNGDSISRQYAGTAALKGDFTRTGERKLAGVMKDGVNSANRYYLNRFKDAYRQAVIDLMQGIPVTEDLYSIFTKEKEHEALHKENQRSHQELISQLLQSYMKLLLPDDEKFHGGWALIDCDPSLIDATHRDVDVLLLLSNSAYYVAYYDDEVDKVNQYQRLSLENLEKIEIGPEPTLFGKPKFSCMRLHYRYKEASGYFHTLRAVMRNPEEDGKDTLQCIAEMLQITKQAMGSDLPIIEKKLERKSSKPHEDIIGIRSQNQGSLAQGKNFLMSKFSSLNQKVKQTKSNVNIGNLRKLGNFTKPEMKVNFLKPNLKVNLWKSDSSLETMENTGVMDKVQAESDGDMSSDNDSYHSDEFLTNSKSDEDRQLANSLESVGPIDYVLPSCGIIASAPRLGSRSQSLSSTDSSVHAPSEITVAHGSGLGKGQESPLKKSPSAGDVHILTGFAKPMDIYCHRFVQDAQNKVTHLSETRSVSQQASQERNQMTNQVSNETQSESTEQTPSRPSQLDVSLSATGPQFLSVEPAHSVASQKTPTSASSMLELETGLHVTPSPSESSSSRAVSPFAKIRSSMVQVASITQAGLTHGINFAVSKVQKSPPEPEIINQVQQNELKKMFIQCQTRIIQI
T4 sequence (Q6NZY4 whole entry): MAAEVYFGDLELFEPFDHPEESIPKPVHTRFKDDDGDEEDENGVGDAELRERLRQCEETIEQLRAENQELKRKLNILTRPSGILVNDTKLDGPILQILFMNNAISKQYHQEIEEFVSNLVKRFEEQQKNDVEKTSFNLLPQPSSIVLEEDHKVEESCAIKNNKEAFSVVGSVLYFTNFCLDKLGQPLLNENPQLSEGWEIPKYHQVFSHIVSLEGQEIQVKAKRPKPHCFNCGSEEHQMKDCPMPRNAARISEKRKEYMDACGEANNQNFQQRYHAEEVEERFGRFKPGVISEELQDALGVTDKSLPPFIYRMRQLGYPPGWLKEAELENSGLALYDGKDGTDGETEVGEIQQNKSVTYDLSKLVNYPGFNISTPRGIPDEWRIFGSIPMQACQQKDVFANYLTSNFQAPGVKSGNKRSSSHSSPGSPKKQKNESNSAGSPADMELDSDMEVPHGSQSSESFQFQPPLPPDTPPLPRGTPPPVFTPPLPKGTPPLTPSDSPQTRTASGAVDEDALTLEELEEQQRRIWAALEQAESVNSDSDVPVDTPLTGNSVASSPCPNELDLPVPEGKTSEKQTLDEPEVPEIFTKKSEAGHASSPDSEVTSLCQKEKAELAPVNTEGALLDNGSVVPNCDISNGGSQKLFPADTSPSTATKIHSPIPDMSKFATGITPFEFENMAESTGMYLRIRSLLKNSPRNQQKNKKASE
T18 sequence (Q13151 whole entry): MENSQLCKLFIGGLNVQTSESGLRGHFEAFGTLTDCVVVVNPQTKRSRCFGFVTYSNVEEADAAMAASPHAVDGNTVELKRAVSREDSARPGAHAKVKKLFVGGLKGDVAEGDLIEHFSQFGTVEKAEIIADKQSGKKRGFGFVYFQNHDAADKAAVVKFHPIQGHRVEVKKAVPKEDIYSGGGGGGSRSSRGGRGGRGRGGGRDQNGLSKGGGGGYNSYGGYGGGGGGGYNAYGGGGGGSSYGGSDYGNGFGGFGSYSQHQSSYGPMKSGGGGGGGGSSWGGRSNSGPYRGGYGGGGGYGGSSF
T10 sequence (Q86XP3 whole entry): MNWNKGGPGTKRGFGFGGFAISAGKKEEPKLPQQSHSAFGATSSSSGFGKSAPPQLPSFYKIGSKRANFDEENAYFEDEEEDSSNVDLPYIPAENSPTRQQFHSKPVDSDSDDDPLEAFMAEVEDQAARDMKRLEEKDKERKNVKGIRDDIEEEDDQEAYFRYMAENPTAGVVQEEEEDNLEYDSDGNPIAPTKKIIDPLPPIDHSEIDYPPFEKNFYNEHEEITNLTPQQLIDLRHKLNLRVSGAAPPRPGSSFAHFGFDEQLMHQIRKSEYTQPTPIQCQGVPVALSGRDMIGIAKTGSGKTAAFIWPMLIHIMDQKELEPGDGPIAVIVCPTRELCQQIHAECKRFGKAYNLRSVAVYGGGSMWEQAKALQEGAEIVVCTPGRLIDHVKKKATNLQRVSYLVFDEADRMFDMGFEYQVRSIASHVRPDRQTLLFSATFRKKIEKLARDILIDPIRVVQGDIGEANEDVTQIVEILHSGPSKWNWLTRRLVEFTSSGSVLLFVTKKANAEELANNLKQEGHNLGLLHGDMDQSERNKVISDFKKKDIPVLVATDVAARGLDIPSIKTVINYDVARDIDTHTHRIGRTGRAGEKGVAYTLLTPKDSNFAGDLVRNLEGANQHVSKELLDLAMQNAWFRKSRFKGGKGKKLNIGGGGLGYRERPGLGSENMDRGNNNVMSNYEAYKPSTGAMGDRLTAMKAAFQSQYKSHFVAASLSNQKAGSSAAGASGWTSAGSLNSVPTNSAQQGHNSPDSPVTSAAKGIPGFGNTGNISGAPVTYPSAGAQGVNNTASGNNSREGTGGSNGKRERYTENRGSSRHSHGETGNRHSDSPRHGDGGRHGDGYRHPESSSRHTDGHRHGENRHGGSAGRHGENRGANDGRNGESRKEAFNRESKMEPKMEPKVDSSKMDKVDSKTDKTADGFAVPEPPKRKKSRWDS
T13 sequence (O43823 whole entry): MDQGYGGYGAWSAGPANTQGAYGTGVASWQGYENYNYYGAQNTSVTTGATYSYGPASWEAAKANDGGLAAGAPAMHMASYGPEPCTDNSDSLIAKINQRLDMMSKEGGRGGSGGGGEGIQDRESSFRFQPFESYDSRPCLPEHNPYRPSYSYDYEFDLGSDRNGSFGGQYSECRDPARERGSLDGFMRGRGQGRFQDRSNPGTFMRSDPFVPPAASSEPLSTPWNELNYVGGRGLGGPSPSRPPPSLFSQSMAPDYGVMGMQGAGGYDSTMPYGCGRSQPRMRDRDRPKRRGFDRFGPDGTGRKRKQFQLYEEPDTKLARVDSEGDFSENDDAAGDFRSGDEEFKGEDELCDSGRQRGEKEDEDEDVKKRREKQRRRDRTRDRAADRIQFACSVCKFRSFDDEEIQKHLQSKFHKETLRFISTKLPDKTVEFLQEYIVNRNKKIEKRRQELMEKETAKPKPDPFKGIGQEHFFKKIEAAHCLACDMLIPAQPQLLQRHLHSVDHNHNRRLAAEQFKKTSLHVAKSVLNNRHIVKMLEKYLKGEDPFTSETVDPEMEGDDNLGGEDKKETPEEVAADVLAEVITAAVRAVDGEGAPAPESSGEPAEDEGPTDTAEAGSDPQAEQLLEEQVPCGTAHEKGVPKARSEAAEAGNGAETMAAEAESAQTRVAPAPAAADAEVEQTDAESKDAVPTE

Consider `O=C(NC1CCCCC1)c1ccc(S(=O)(=O)n2cncn2)cc1` [HHS-0301, 4-((1H-1,2,4-triazol-1-yl)sulfonyl)-N-cyclohexylbenzamide], for which, on Q9BTC8, the “liganded tyrosine site 22” value is recorded as “HHS0301.Y (tyrosine sites that showed >80% reductions (SR >5) in probe labeling in cells treated with compounds (liganded sites))”. Further, the “liganded tyrosine site 451” value on Q06203 is given as “HHS0301.Y (tyrosine sites that showed >80% reductions (SR >5) in probe labeling in cells treated with compounds (liganded sites))”. The “liganded tyrosine site 647” value on Q9P2E9 is listed as “HHS0301.Y (tyrosine sites that showed >80% reductions (SR >5) in probe labeling in cells treated with compounds (liganded sites))”.

As for `O=C(c1ccc(S(=O)(=O)n2cncn2)cc1)N1CCC(c2ccccc2)CC1` [HHS-0701, (4-((1H-1,2,4-triazol-1-yl)sulfonyl)phenyl)(4-phenylpiperidin-1-yl)methanone], the “liganded tyrosine site 258” value at Q6NZY4 was “HHS0701.Y (tyrosine sites that showed >80% reductions (SR >5) in probe labeling in cells treated with compounds (liganded sites))”. On Q04837, the “liganded tyrosine site 101” value is given as “HHS0701.Y (tyrosine sites that showed >80% reductions (SR >5) in probe labeling in cells treated with compounds (liganded sites))” and the “liganded tyrosine site 119” value is listed as “HHS0701.Y (tyrosine sites that showed >80% reductions (SR >5) in probe labeling in cells treated with compounds (liganded sites))”. Moreover, the “liganded tyrosine site 149” value on Q13011 is on record as “HHS0701.Y (tyrosine sites that showed >80% reductions (SR >5) in probe labeling in cells treated with compounds (liganded sites))”.

Regarding `O=C(NCC1CC1)c1ccc(S(=O)(=O)n2cncn2)cc1` [HHS-0201, 4-((1H-1,2,4-triazol-1-yl)sulfonyl)-N-(cyclopropylmethyl)benzamide], at Q9UPP1, the “liganded tyrosine site 383” value was “HHS0201.Y (tyrosine sites that showed >80% reductions (SR >5) in probe labeling in cells treated with compounds (liganded sites))”. For the same compound, the “liganded tyrosine site 92” value at Q9NV35 is “HHS0201.Y (tyrosine sites that showed >80% reductions (SR >5) in probe labeling in cells treated with compounds (liganded sites))”. For the same compound, the “liganded tyrosine site 42” value on Q9UFN0 is given as “HHS0201.Y|HHS0301.Y|HHS0401.Y|HHS0701.Y (tyrosine sites that showed >80% reductions (SR >5) in probe labeling in cells treated with compounds (liganded sites))”. Moreover, the “liganded tyrosine site 685” value on Q86XP3 is listed as “HHS0201.Y (tyrosine sites that showed >80% reductions (SR >5) in probe labeling in cells treated with compounds (liganded sites))”. Further, at Q9NUJ1, the “liganded tyrosine site 215” value is reported as “HHS0201.Y|HHS0701.Y (tyrosine sites that showed >80% reductions (SR >5) in probe labeling in cells treated with compounds (liganded sites))”.

As for `O=C(NCc1ccccc1)c1ccc(S(=O)(=O)n2cncn2)cc1` [HHS-0401, 4-((1H-1,2,4-triazol-1-yl)sulfonyl)-N-benzylbenzamide], the “liganded tyrosine site 266” value on O00571 is on record as “HHS0401.Y (tyrosine sites that showed >80% reductions (SR >5) in probe labeling in cells treated with compounds (liganded sites))”. Further, the “liganded tyrosine site 436” value at O43823 was “HHS0401.Y (tyrosine sites that showed >80% reductions (SR >5) in probe labeling in cells treated with compounds (liganded sites))”. On Q9Y2H2, the “liganded tyrosine site 887” value is “HHS0401.Y|HHS0701.Y (tyrosine sites that showed >80% reductions (SR >5) in probe labeling in cells treated with compounds (liganded sites))”. Besides, the “liganded tyrosine site 203” value on O75131 is “HHS0401.Y (tyrosine sites that showed >80% reductions (SR >5) in probe labeling in cells treated with compounds (liganded sites))”.

Turning to `O=C(NC1CC1)c1ccc(S(=O)(=O)n2cncn2)cc1` [HHS-0101, 4-((1H-1,2,4-triazol-1-yl)sulfonyl)-N-cyclopropylbenzamide], the “liganded tyrosine site 639” value at O95757 is listed as “HHS0101.Y|HHS0301.Y|HHS0401.Y (tyrosine sites that showed >80% reductions (SR >5) in probe labeling in cells treated with compounds (liganded sites))”. Also, on Q9BXS6, the “liganded tyrosine site 165” value is reported as “HHS0101.Y (tyrosine sites that showed >80% reductions (SR >5) in probe labeling in cells treated with compounds (liganded sites))”. In addition, the “liganded tyrosine site 180” value at Q13151 was “HHS0101.Y (tyrosine sites that showed >80% reductions (SR >5) in probe labeling in cells treated with compounds (liganded sites))”. At P49792, the “liganded tyrosine site 1983” value is “HHS0101.Y (tyrosine sites that showed >80% reductions (SR >5) in probe labeling in cells treated with compounds (liganded sites))”.
